In ChEMBL document CHEMBL1828523, “Synthesis and stereospecificity of 4,5-disubstituted oxazolidinone ligands binding to T-box riboswitch RNA” (J Med Chem, 2011):

biological target: Nucleic Acid; test: Binding affinity to Bacillus subtilis antiterminator AM1A RNA model after 70 mins by FRET assay; type: nucleic-acid assay

SMILES | Kd
O=C(Cc1ccccc1)OC[C@H]1OC(=O)N[C@H]1CN1CCN(c2ccccc2)CC1 (racemic) | 5.1 µM

biological target: Nucleic Acid; test: Binding affinity to Bacillus subtilis antiterminator AM1A RNA model after 130 mins by FRET assay; type: nucleic-acid assay

SMILES | Kd
O=C(Cc1ccccc1)OC[C@@H]1OC(=O)N[C@H]1CN1CCN(c2ccccc2)CC1 | 16 µM
O=C(Cc1ccccc1)OC[C@H]1OC(=O)N[C@@H]1CN1CCN(c2ccccc2)CC1 | 12 µM
CC(=O)c1ccc(NC(=O)OC[C@H]2OC(=O)N[C@H]2CN2CCN(c3ccccc3)CC2)cc1 (racemic) | 1.8 µM
CC(=O)c1ccc(NC(=O)OC[C@H]2OC(=O)N[C@@H]2CN2CCN(c3ccccc3)CC2)cc1 | 3 µM
CC(=O)c1ccc(NC(=O)OC[C@@H]2OC(=O)N[C@H]2CN2CCN(c3ccccc3)CC2)cc1 | 1.6 µM
O=C(Cc1ccccc1)OC[C@H]1OC(=O)N[C@H]1CN1CCN(c2ccccc2)CC1 (racemic) | > 100 µM
